{"source": "paper PMC3923778", "about": "(PLoS Currents, 2014)", "key": {"[1]": {"tested_on": "R6/2 hippocampal slices", "test": "Electrophysiological evaluation in R6/2 hippocampal slices (MEA, fEPSP)", "design": "species or system mouse", "procedure": "Electrophysiology was conducted at Neuroservice SARL, France. All animals were group housed under environmentaly enriched conditions and used in accordance with European legislations for animal care. On the day of recording, 7-8 week old R6/2 or wild type littermate (WT) mice were decapitated without anaesthesia followed by rapid brain removal into ice-cold oxygenated buffer (in mM; saccharose, 250, KCl 2, NaH2PO4 1.2, MgCl2 7, CaCl2 0.5, NaHCO3 26, glucose 11). Hippocampal slices (350 μm thickness) were prepared with a MacIlwain tissue-chopper and incubated at room temperature (RT, 18 – 22 °C) and allowed to recover for at least 1 h prior to recording in oxygenated Artificial Cerebro-Spinal Fluid (ACSF) of the following composition: (in mM; NaCl, 126, KCl 3.5, NaH2PO4 1.2, MgCl2 1.3, CaCl2 2, NaHCO3 25, D-glucose 11, pH 7.2). For experiments, individual slices were transferred to a 3-dimensional 60 electrode MEA chip (Ayanda Biosystems, Lausanne, Switzerland) and continuously perfused with oxygenated (95% O2–5% CO2) ACSF at 37 °C at a rate of 3 mlmin^-1, allowing for complete solution exchange within the MEA chamber 20 s following solution switches (MEA chamber volume: ~1 mL).\nFor stimulation, one MEA electrode underlying the Schaeffer collaterals at the CA3/CA1 interface was chosen visually as the stimulating electrode. The stimulus consisted of a monopolar biphasic current pulse (negative for 60 μs and then positive for 60 μs) applied at a frequency of 0.03 Hz. Recordings of resultant field excitatory postsynaptic potentials (fEPSPs) from electrodes underlying the CA1 region were made using MultiChannel Systems MCS GmbH software (MC Stim, MS Rack) and hardware composed of a 4-channel stimulus generator and a 60-channel amplifier head-stage connected to a 60-channel A/D card (Reutlingen, Germany). […] Paired pulse facilitation (PPF) was then assessed at 40 % of the maximal fEPSP amplitude response (as defined from the I/O curve) by delivering two pulses to the stimulating electrode with decreasing inter-stimulus intervals (ISI of 300 ms, 200 ms, 100 ms, 50 ms, 25 ms). PPF was performed 4 times per slice, and the resultant 4 fEPSP amplitudes at a given ISI were averaged together. […]\nFor measurement of long term potentiation (LTP), basal fEPSPs were recorded at 0.03 Hz for ten minutes at 40 % of maximal FEPSP amplitude to verify the baseline stability. […] Potentiation of fEPSP amplitude was then monitored for an additional 60 minute period. […]\nFor each slice, the fEPSP values at each electrode recorded within the CA1 region were averaged to obtain a single fEPSP value per slice per timepoint. […] Data was analysed using Repeat Measure Two-way ANOVA followed by a post hoc Bonferroni test to analyse statistical significance of single data points using Prism 5.0 software. […]"}, "[2]": {"tested_on": "R6/2 mice", "test": "Acute and subchronic (2 weeks) tolerability evaluation in R6/2 mice", "type": "in vivo", "conditions": "R6/2 mice starting at 6 weeks of age, all doses administered", "description": "Prior to chronic dosing, we conducted an acute and subchronic (2 weeks) tolerability evaluation in R6/2 mice starting at 6 weeks of age (studies conducted at Psychogenics, USA; see Supplementary Report 1 for full details)."}, "[3]": {"test": "Body weight during chronic dosing in R6/2 mice", "type": "in vivo, mouse", "conditions": "BID, ANOVA", "procedure": "Body weight was measured starting at the age of 4 weeks and a further two times per week on the same day until the end of the study. This was done just prior to animals receiving doses for those days.\nAll values are presented as mean ± Standard Error of Mean (SEM), and differences are considered to be statistically significant at the p < 0.05 level. Statistical analysis was performed using StatsDirect statistical software. Differences between group means were analyzed by 1-way-ANOVA followed by Dunnett’s test (comparison to the control (=vehicle treated TG mice) group). The acquisition of the Cued two-choice swim test was analyzed using Fisher’s exact test."}}, "note": "Entries after “also recorded” stand apart in the source; their conditions may differ.", "data": [{"molecule": "CN1C(=O)c2nc(Cc3ccc(C(F)(F)F)cc3)[nH]c2N2C1=N[C@H]1CCC[C@H]12", "note": "[SCH-51866, (+)-cis-5,6a,7,8,9,9a-hexahydro-2-[4-[trifluro-methyl]phenylmethyl]-5-methyl-cylopent[4,5]imidazo [2,1-b]purin-4(3H)one]", "values": [{"measurement": "basal synaptic transmission (input/output characteristics)", "setting": "[1]; 3 µM, R6/2 slices", "value": "no significant effect; also recorded: did not significantly reduce"}, {"measurement": "paired pulse facilitation (PPF)", "setting": "[1]; 3 µM, R6/2 slices", "value": "restored R6/2 paired-pulse facilitation (PPF) to WT levels; also recorded: significantly restored to WT levels"}, {"measurement": "long-term potentiation (LTP)", "setting": "[1]; 3 µM, R6/2 slices, vs ACSF alone", "value": "did not restore the deficit; also recorded: did not result in an amplitude of LTP significantly different"}, {"measurement": "electrophysiological parameters in hippocampal slices, overall", "setting": "[1]; concentration sufficient to fully inhibit the PDE1 enzyme", "value": "does not improve"}, {"measurement": "tolerability", "setting": "[2]", "value": "well tolerated with no sign of adverse effects"}, {"measurement": "Body Weight: p vs Vehicle-treated R6/2 mice", "setting": "[3]; Age Week 4, 10 mg/kg p.o.", "value": "ANOVA: p=0.878"}, {"measurement": "Body Weight: p vs Vehicle-treated R6/2 mice", "setting": "[3]; Age Week 4, 30 mg/kg p.o.", "value": "ANOVA: p=0.878"}, {"measurement": "Body Weight: p vs Vehicle-treated R6/2 mice", "setting": "[3]; Age Week 5, 10 mg/kg p.o.", "value": "ANOVA: p=0.762"}, {"measurement": "Body Weight: p vs Vehicle-treated R6/2 mice", "setting": "[3]; Age Week 5, 30 mg/kg p.o.", "value": "ANOVA: p=0.762"}, {"measurement": "Body Weight: p vs Vehicle-treated R6/2 mice", "setting": "[3]; Age Week 6, 10 mg/kg p.o.", "value": "ANOVA: p=0.934"}, {"measurement": "Body Weight: p vs Vehicle-treated R6/2 mice", "setting": "[3]; Age Week 6, 30 mg/kg p.o.", "value": "ANOVA: p=0.934"}, {"measurement": "Body Weight: p vs Vehicle-treated R6/2 mice", "setting": "[3]; Age Week 7, 10 mg/kg p.o.", "value": "ANOVA: p=0.766"}, {"measurement": "Body Weight: p vs Vehicle-treated R6/2 mice", "setting": "[3]; Age Week 7, 30 mg/kg p.o.", "value": "ANOVA: p=0.766"}, {"measurement": "Body Weight: p vs Vehicle-treated R6/2 mice", "setting": "[3]; Age Week 8, 10 mg/kg p.o.", "value": "ANOVA: p=0.926"}, {"measurement": "Body Weight: p vs Vehicle-treated R6/2 mice", "setting": "[3]; Age Week 8, 30 mg/kg p.o.", "value": "ANOVA: p=0.926"}, {"measurement": "Body Weight: p vs Vehicle-treated R6/2 mice", "setting": "[3]; Age Week 9, 10 mg/kg p.o.", "value": "ANOVA: p=0.886"}, {"measurement": "Body Weight: p vs Vehicle-treated R6/2 mice", "setting": "[3]; Age Week 9, 30 mg/kg p.o.", "value": "ANOVA: p=0.886"}, {"measurement": "Body Weight: p vs Vehicle-treated R6/2 mice", "setting": "[3]; Age Week 10, 10 mg/kg p.o.", "value": "ANOVA: p=0.969"}, {"measurement": "Body Weight: p vs Vehicle-treated R6/2 mice", "setting": "[3]; Age Week 10, 30 mg/kg p.o.", "value": "ANOVA: p=0.969"}, {"measurement": "Body Weight: p vs Vehicle-treated R6/2 mice", "setting": "[3]; Age Week 11, 10 mg/kg p.o.", "value": "ANOVA: p=0.891"}, {"measurement": "Body Weight: p vs Vehicle-treated R6/2 mice", "setting": "[3]; Age Week 11, 30 mg/kg p.o.", "value": "ANOVA: p=0.891"}, {"measurement": "Body Weight: p vs Vehicle-treated R6/2 mice", "setting": "[3]; Age Week 12, 10 mg/kg p.o.", "value": "ANOVA: p=0.774"}, {"measurement": "Body Weight: p vs Vehicle-treated R6/2 mice", "setting": "[3]; Age Week 12, 30 mg/kg p.o.", "value": "ANOVA: p=0.774"}, {"measurement": "Body Weight: p vs Vehicle-treated R6/2 mice", "setting": "[3]; Age Week 13, 10 mg/kg p.o.", "value": "ANOVA: p=0.855"}, {"measurement": "Body Weight: p vs Vehicle-treated R6/2 mice", "setting": "[3]; Age Week 13, 30 mg/kg p.o.", "value": "ANOVA: p=0.855"}, {"measurement": "Body Weight: p vs Vehicle-treated R6/2 mice", "setting": "[3]; Age Week 14, 10 mg/kg p.o.", "value": "ANOVA: p=0.878"}, {"measurement": "Body Weight: p vs Vehicle-treated R6/2 mice", "setting": "[3]; Age Week 14, 30 mg/kg p.o.", "value": "ANOVA: p=0.878"}, {"measurement": "Body Weight: p vs Vehicle-treated R6/2 mice", "setting": "[3]; Age Week 15, 10 mg/kg p.o.", "value": "ANOVA: p=0.989"}, {"measurement": "Body Weight: p vs Vehicle-treated R6/2 mice", "setting": "[3]; Age Week 15, 30 mg/kg p.o.", "value": "ANOVA: p=0.989"}, {"measurement": "Body Weight: p vs Vehicle-treated R6/2 mice", "setting": "[3]; Age Week 16, 10 mg/kg p.o.", "value": "ANOVA: p=0.651"}, {"measurement": "Body Weight: p vs Vehicle-treated R6/2 mice", "setting": "[3]; Age Week 16, 30 mg/kg p.o.", "value": "ANOVA: p=0.651"}, {"measurement": "Body Weight: p vs Vehicle-treated R6/2 mice", "setting": "[3]; Age Week 17, 10 mg/kg p.o.", "value": "ANOVA: p=0.817"}, {"measurement": "Body Weight: p vs Vehicle-treated R6/2 mice", "setting": "[3]; Age Week 17, 30 mg/kg p.o.", "value": "ANOVA: p=0.817"}, {"measurement": "Body Weight: p vs Vehicle-treated R6/2 mice", "setting": "[3]; Age Week 18, 10 mg/kg p.o.", "value": "ANOVA: p=0.644"}, {"measurement": "Body Weight: p vs Vehicle-treated R6/2 mice", "setting": "[3]; Age Week 18, 30 mg/kg p.o.", "value": "ANOVA: p=0.644"}, {"measurement": "Body Weight: p vs Vehicle-treated R6/2 mice", "setting": "[3]; Age Week 19, 10 mg/kg p.o.", "value": "ANOVA: p=0.975"}, {"measurement": "Body Weight: p vs Vehicle-treated R6/2 mice", "setting": "[3]; Age Week 19, 30 mg/kg p.o.", "value": "ANOVA: p=0.975"}, {"measurement": "Body Weight: p vs Vehicle-treated R6/2 mice", "setting": "[3]; Age Week 20, 10 mg/kg p.o.", "value": "ANOVA: p=0.900"}, {"measurement": "Body Weight: p vs Vehicle-treated R6/2 mice", "setting": "[3]; Age Week 20, 30 mg/kg p.o.", "value": "ANOVA: p=0.900"}, {"measurement": "Body Weight: p vs Vehicle-treated R6/2 mice", "setting": "[3]; Age Week 21, 10 mg/kg p.o.", "value": "ANOVA: p=0.996"}, {"measurement": "Body Weight: p vs Vehicle-treated R6/2 mice", "setting": "[3]; Age Week 21, 30 mg/kg p.o.", "value": "ANOVA: p=0.996"}]}]}
